Test results: ChEMBL document CHEMBL4270497, “Recent advances (2015-2016) in anticancer hybrids” (Eur J Med Chem, 2017)
≈ marks a conversion by molar mass, not a printed value.

Legend:
A549 [1] = assay: Cytotoxicity in human A549 cells assessed a reduction in cell viability incubated for 48 hrs by MTT assay; format: functional, cell-based; settings: A549, 48 h
Tyrosinase = Tyrosinase (Agaricus bisporus, UniProt O42713); assay: Inhibition of diphenolase activity of mushroom tyrosinase pre-incubated for 30 mins before L-DOPA substrate addition and measured after 1 min by spectrophotometric assay
Tyrosinase, sequence (O42713 whole entry): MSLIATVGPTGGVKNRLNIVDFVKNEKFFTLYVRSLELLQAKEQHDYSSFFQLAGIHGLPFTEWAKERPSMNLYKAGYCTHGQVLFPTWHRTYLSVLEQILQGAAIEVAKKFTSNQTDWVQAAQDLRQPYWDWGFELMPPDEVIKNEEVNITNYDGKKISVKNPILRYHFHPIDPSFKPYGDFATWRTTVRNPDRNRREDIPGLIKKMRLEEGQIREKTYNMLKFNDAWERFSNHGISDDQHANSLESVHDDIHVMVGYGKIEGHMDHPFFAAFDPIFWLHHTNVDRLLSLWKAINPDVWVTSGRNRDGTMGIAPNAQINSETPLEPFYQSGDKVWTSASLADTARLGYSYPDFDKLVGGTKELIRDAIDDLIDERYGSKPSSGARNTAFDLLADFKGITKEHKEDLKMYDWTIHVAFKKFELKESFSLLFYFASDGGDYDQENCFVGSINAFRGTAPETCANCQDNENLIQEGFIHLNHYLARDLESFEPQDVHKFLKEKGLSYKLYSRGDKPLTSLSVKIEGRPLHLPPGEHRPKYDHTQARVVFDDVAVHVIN

DU-145 = assay: Antiproliferative activity against human DU145 cells incubated for 48 hrs by MTT assay; format: functional, cell-based; settings: DU-145, 48 h
MDA-MB-231 [2] = assay: Antiproliferative activity against human MDA-MB-231 cells incubated for 48 hrs by MTT assay; format: functional, cell-based; settings: MDA-MB-231, 48 h
SK-OV-3 = assay: Antiproliferative activity against human SKOV3 cells incubated for 48 hrs by MTT assay; format: functional, cell-based; settings: SK-OV-3, 48 h
HUVEC [3] = assay: Antiproliferative activity against human HUVEC cells incubated for 48 hrs by MTT assay; format: functional, cell-based
A498 = assay: Growth inhibition of human A498 cells at 10 uM; format: functional; settings: read-out: GI
MDA-MB-231 [4] = assay: Growth inhibition of human MDA-MB-231 cells at 10 uM; format: functional; settings: read-out: GI
[5] = target: Vascular endothelial growth factor receptor 1 (Homo sapiens, UniProt P17948); assay: Inhibition of VEGFR1 (unknown origin) using KKKSPGEYVNIEFG substrate and [33P-g-ATP] incubated for 30 mins
Vascular endothelial growth factor receptor 1, sequence (P17948 whole entry): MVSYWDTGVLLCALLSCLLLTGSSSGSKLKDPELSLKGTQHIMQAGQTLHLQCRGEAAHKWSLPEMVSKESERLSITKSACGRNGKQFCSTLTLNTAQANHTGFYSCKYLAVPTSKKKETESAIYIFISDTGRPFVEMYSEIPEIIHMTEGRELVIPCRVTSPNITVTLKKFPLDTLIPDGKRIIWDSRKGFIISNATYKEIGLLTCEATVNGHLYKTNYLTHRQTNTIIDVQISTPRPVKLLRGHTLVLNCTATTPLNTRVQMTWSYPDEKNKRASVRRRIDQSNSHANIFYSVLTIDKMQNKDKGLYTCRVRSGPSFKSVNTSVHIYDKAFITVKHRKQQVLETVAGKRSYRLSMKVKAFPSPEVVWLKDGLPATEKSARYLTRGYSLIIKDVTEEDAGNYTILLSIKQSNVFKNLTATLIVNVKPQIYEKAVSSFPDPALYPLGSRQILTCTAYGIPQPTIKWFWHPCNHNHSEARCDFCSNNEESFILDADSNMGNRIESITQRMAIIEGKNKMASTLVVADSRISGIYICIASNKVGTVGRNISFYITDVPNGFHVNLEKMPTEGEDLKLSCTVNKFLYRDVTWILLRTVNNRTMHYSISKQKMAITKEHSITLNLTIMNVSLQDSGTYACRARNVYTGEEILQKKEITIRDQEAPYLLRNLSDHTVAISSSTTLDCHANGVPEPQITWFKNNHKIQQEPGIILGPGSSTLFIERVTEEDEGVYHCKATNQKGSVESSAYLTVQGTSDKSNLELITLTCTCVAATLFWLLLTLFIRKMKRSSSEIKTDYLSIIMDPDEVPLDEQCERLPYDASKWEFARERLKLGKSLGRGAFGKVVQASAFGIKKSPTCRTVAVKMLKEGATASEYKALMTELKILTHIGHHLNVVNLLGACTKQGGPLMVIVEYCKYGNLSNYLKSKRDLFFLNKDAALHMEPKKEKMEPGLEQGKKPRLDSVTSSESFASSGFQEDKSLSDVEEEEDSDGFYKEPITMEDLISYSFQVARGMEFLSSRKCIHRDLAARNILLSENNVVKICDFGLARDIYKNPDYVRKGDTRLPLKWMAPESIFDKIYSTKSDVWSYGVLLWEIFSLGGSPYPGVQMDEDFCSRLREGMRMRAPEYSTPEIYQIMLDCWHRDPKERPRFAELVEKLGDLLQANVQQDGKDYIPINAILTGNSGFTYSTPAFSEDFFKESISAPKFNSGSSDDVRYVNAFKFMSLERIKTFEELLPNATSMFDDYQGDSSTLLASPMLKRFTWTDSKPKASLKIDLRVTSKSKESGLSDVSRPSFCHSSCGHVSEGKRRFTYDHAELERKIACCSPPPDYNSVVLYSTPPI

HUVEC [6] = assay: Inhibition of VEGF-induced cell migration of HUVEC assessed as wound closure level at cytotoxic IC50 incubated for 24 hrs (reference value: 100%); format: functional, Homo sapiens; parameters: scale not given: the % may be the effect or the level left
LS180 = assay: Inhibition of P-gp in human LS180 cells assessed as reduction in doxorubicin cytotoxic IC50 level at 50 uM by MTT assay; format: functional
KB = assay: Cytotoxicity in human KB cells assessed as reduction in cell viability; format: functional, cell-based
HT-29 [7] = assay: Cytotoxicity in human HT-29 cells assessed as reduction in cell viability incubated for 48 hrs by MTT assay; format: functional, cell-based; settings: HT-29, 48 h
PC-3 = assay: Cytotoxicity in human PC3 cells assessed as reduction in cell viability incubated for 48 hrs by MTT assay; format: functional, cell-based; settings: PC-3, 48 h
A549 [8] = assay: Cytotoxicity in human A549 cells assessed as reduction in cell viability incubated for 48 hrs by MTT assay; format: functional, cell-based; settings: A549, 48 h
U-87 MG = assay: Cytotoxicity in human U87MG cells assessed as reduction in cell viability incubated for 48 hrs by MTT assay; format: functional, cell-based, U-87MG ATCC
[9] = target: Epidermal growth factor receptor (Homo sapiens, UniProt P00533); assay: Inhibition of 6x-His-tagged human EGFR cytoplasmic domain (645 to 1186 amino acids) assessed as reduction in autophosphorylation pre-incubated for 10 mins and measured after 1 hr by DELFIA/time-resolved fluorometry
Epidermal growth factor receptor, sequence (P00533 whole entry, the tested form may be a part): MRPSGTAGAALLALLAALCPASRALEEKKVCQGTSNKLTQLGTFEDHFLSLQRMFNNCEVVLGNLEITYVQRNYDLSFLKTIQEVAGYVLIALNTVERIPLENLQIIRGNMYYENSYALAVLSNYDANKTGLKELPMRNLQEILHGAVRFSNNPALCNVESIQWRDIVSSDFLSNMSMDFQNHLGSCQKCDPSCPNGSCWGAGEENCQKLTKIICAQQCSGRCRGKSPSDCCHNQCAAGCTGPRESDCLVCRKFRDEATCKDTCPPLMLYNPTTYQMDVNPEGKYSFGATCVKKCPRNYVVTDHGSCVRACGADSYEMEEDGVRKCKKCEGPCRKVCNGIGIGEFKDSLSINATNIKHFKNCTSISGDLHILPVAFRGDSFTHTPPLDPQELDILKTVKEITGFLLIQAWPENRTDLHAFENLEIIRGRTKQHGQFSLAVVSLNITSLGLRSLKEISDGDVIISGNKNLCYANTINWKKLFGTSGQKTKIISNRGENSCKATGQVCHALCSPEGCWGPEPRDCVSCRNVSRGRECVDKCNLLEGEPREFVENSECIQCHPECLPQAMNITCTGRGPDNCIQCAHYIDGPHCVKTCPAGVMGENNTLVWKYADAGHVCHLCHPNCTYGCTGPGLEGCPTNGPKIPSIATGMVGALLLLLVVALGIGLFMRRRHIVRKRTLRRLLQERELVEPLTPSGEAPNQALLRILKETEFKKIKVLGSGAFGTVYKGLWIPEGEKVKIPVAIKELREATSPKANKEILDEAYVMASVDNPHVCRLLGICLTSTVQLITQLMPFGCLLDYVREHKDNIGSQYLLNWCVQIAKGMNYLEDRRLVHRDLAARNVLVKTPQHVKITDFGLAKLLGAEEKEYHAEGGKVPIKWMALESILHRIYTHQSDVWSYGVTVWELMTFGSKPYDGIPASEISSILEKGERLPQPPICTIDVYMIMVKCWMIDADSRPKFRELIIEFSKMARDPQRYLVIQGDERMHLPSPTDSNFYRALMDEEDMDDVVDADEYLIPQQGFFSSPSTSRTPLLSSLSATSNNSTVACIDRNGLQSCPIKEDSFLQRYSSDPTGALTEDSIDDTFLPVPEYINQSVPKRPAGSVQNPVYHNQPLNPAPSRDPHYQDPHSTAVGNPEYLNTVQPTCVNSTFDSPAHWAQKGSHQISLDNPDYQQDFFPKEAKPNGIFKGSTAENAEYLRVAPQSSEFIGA

B16-F10 = assay: Antiproliferative activity against mouse B16F10 cells incubated for 48 hrs by MTT assay; format: functional, cell-based; settings: B16-F10, 48 h
HeLa = assay: Antiproliferative activity against human HeLa cells incubated for 48 hrs by MTT assay; format: functional, cell-based
MCF7 [10] = assay: Antiproliferative activity against human MCF7 cells incubated for 48 hrs by MTT assay; format: functional, cell-based; settings: MCF7, 48 h
HEK293 [11] = assay: Cytotoxicity in HEK293 cells at 100 uM by MTT assay; format: cell-based; settings: human, hek293, 100 µM
MCF7 [12] = assay: Anticancer activity against human MCF7 cells assessed as reduction in cell viability incubated for 48 hrs by MTT assay; format: functional, cell-based; settings: MCF7, 48 h
HL-60 = assay: Anticancer activity against human HL60 cells assessed as reduction in cell viability incubated for 48 hrs by MTT assay; format: functional, cell-based; settings: HL-60, 48 h
HT-29 [13] = assay: Antiproliferative activity against human HT-29 cells incubated for 48 hrs by MTT assay; format: functional, cell-based; settings: HT-29, 48 h
A549 [14] = assay: Antiproliferative activity against human A549 cells incubated for 48 hrs by MTT assay; format: functional, cell-based; settings: A549, 48 h
HEK293 [15] = assay: Antiproliferative activity against HEK293 cells incubated for 48 hrs by MTT assay; format: cell-based; settings: Homo sapiens, HEK293, 48 h
HCT-116 = assay: Antiproliferative activity against human HCT116 cells incubated for 48 hrs by MTT assay; format: functional, cell-based; settings: HCT-116, 48 h

`COc1ccc(-c2nc(/C=C/C(=O)c3ccc(N)cc3)cc3c2[nH]c2ccccc23)cc1OC` was tested, and the IC50 (A549 [1]) was less than 10000 nM.

`COc1cc(-c2nc(/C=C/C(=O)c3ccc(O)cc3)cc3c2[nH]c2ccccc23)cc(OC)c1OC` was tested, and the IC50 (A549 [1]) was less than 10000 nM.

Compound `CN(C)c1ccc(C2CC(c3cc4ccccc4o3)=NN2C(=O)Nc2ccc(Cl)cc2)c2ccccc12` (centres undefined) has an IC50 (Tyrosinase) of 4720 nM.

Work on `CC12CCC(OC(=O)CCC(=O)OCCOc3no[n+]([O-])c3S(=O)(=O)c3ccccc3)CC1=CCC1C2CCC2(C)c3c(cnn3-c3ccccc3)CC12` (centres undefined) yielded an IC50 (DU-145) of 20 nM, an IC50 (MDA-MB-231 [2]) of 1.4 nM and an IC50 (SK-OV-3) of 3.4 nM. It also gave an IC50 (HUVEC [3]) of 3.5 nM.

`COc1cc(-c2nc(/C=C/C(=O)c3ccc([N+](=O)[O-])cc3)cc3c2[nH]c2ccccc23)ccc1F` was tested, and the IC50 (A549 [1]) was less than 10000 nM.

`COc1ccc(C(=O)/C=C/c2cc3c([nH]c4ccccc43)c(-c3cc(OC)c(OC)c(OC)c3)n2)cc1` showed an IC50 (A549 [1]) of less than 10000 nM.

`Cc1cc(=O)oc2cc(Oc3nc(-c4ccccc4)cn4c(-c5ccccc5)cnc34)ccc12` showed an inhibition of growth at 10 µM (A498) of 90% and an inhibition of growth at 10 µM (MDA-MB-231 [4]) of 93%.

With `O=C(Nc1ccc(F)cc1)c1sccc1Nc1cccc2c1OCO2` the IC50 [5] was 2500 nM, the Activity (HUVEC [6]) was 20% and the “Ratio IC50” value (LS180) was 14.

Work on `COc1cc(-c2nc(/C=C/C(=O)c3ccc(F)cc3)cc3c2[nH]c2ccccc23)ccc1F` yielded an IC50 (A549 [1]) of less than 10000 nM.

`O=C(/C=C/c1ccc(/C=C/C(=O)c2cccc3c2C(=O)c2ccccc2C3=O)cc1)c1ccccc1` was tested, and the IC50 (KB) was 0.66 µg/mL (≈ 1.41 µM).

With `CC[C@]1(O)C[C@H]2CN(CCc3c([nH]c4ccccc34)[C@@](C(=O)OC)(c3cc4c(cc3OC)N(C=O)[C@H]3[C@@](O)(C(=O)OC)[C@H](OC(C)=O)[C@]5(CC)C=CCN6CC[C@]43[C@@H]65)C2)C1` [VINCRISTINE] the IC50 (KB) was 0.46 µg/mL (≈ 0.558 µM).

`COc1ccc(Cn2cc(C(=O)c3cn(-c4ccccc4)nc3-c3ccc(Cl)cc3)nn2)cc1OC` showed an IC50 (HT-29 [7]) of 2420 nM, an IC50 (PC-3) of 3710 nM and an IC50 (A549 [8]) of 1930 nM. The IC50 (U-87 MG) was 860 nM.

Work on `COc1ccc(C(=O)/C=C/c2cc3c([nH]c4ccccc43)c(-c3ccc(F)c(OC)c3)n2)cc1` yielded an IC50 (A549 [1]) of less than 10000 nM.

For `O=C1CSC(N2N=C(c3ccncc3)CC2c2ccc(Br)cc2)=N1` (centres undefined), the IC50 [9] was 9 nM, the IC50 (B16-F10) was 90 nM and the IC50 (HeLa) was 290 nM. The IC50 (MCF7 [10]) was 560 nM.

`O=C(/C=C/c1cc2c([nH]c3ccccc32)c(-c2ccc(F)cc2)n1)c1ccc(F)cc1` gave an IC50 (A549 [1]) of less than 10000 nM.

`COc1ccc(-c2cn3c(-c4ccc(OC)cc4)cnc3c(Oc3ccc4c(C)cc(=O)oc4c3)n2)cc1` showed an inhibition of growth at 10 µM (A498) of 90%, an inhibition of growth at 10 µM (MDA-MB-231 [4]) of 93% and an Activity (HEK293 [11]) of 17%.

For `COc1ccc(-c2nn(-c3ccccc3)cc2C(=O)c2cn(Cc3ccc(OC)c(OC)c3)nn2)cc1`, the IC50 (HT-29 [7]) was 1780 nM, the IC50 (PC-3) was 3520 nM and the IC50 (A549 [8]) was 2240 nM. The IC50 (U-87 MG) was 970 nM.

`COc1cc(-c2nc(/C=C/C(=O)c3ccc(F)cc3)cc3c2[nH]c2ccccc23)cc(OC)c1OC` was tested, and the IC50 (A549 [1]) was less than 10000 nM.

For `O=C(c1ccccc1)c1ccc2[nH]c(-c3c4ccccc4cc4ccccc34)nc2c1`, the IC50 (MCF7 [12]) was 16200 nM and the IC50 (HL-60) was 15200 nM.

`COc1cc(Cn2cc(C(=O)c3cccnc3Nc3ccc(F)cc3)nn2)cc(OC)c1` gave an IC50 (HT-29 [13]) of 3100 nM, an IC50 (DU-145) of 3000 nM and an IC50 (A549 [14]) of 3900 nM. For the same compound, the IC50 (HEK293 [15]) was 75200 nM.

For `COc1ccc(N/C=C/C(=O)c2cccnc2Nc2cc(OC)c(OC)c(OC)c2)cc1`, the IC50 (HeLa) was 510 to 1290 nM, the IC50 (MCF7 [10]) was 510 to 1290 nM and the IC50 (A549 [14]) was 510 to 1290 nM. For the same compound, the IC50 (HCT-116) was 510 to 1290 nM.

`COc1ccc(Cn2cc(C(=O)c3cccnc3Nc3ccc(F)cc3)nn2)cc1OC` was tested, and the IC50 (HT-29 [13]) was 3700 nM, the IC50 (DU-145) was 3100 nM and the IC50 (A549 [14]) was 4100 nM. The IC50 (HEK293 [15]) was 64300 nM.
